Results as given in patent US9221815B2, “Solid state form of vemurafenib choline salt” (ratiopharm GmbH, priority 2012, dated 2015).
Like-named read-outs stand apart in the source and are kept apart here. One block for each compound: values may come before it.

Tests used:
[1] = in accordance with WO 2010/114928 and WO 2010/129570; cited from earlier work
[2] = amorphous form; cited from earlier work

Structure (SMILES): CCCS(=O)(=O)Nc1ccc(F)c(C(=O)c2c[nH]c3ncc(-c4ccc(Cl)cc4)cc23)c1F [Vemurafenib, propane-1-sulfonic acid {3-[5-(4-chlorophenyl)-1H-pyrrolo[2,3-b]pyridine-3-carbonyl]-2,4-difluoro-phenyl}-amide]
Solubility (in words) [1]: extremely low solubility

Period stable upon storage (45° C. and 75% relative humidity (RH)): at least 2 weeks | Period stable upon storage (ambient conditions (room temperature and atmospheric humidity)): at least 7 months
Structure (SMILES): CCCS(=O)(=O)Nc1ccc(F)c(C(=O)c2c[nH]c3ncc(-c4ccc(Cl)cc4)cc23)c1F.C[N+](C)(C)CCO [Vemurafenib Choline crystalline C1]

Structure (SMILES): CCCS(=O)(=O)Nc1ccc(F)c(C(=O)c2c[nH]c3ncc(-c4ccc(Cl)cc4)cc23)c1F [Amorphous Vemurafenib]
Stability (in words) [2]: not stable
